# Source: patent US7150886B2, “Composition for treating diseased liver” (Industrial Technology Research Institute, priority 2002, dated 2006)
# What was measured:
# [1] = tested on: rats with d-galactosamine-induced acute hepatitis; experiment: D-galactosamine-induced acute hepatitis in rats, serum GOT and GPT; format: in vivo; conditions: rat serum 24 h after d-galactosamine i.p. (500 mg/kg); test substance oral × 3, dose per group as in Table 3; N = 5
# Experimental: The liver enzymes were dramatically released to the blood stream when the hepatocyte was damaged, and thus the serum GOT and GPT values increased. […] In other words, the restoration effects of the extracts on the damaged liver were evaluated through comparing the GOT and GPT variations before and after a treatment of the extracts.
# Five male rats were divided in each group, each rat with body weight about 200±20 g. […] The reference group was orally given guanine (300 mg/kg). Half an hour later, each group was i.p. with d-galactosamine (500 mg/kg), except the control group. Four and eight hours after first injection, test substances were administered orally again at the same dose. After 24 hours, the animals were sacrificed, and the blood was collected from the carotid arteries. The serum was separated and incubated at room temperature for 10 minutes, and then centrifuged (Backman centrifuge, GS-6R, 3000 rpm) for another 10 minutes. The activities of rat serum GOT (Glutamyl Oxaloacetic Transaminase) and GPT (Glutamyl Pyrubic Transaminase) were measured.
# B type hepatitis = conditions: treating B type hepatitis; cited from earlier work
molecule,measurement,setting,value
"Nc1nc2nc[nH]c2c(=O)[nH]1 [Guanine, guanine]",GOT,[1],1024.8 ± 91.1 U/L
same,GPT,[1],602.4 ± 61.7 U/L
interferon,positive response,B type hepatitis,20%
